Test results published in ChEMBL document CHEMBL1133961, “Chemo-enzymatic synthesis of the Galili epitope Gal(alpha)(1-->3)Galbeta(1-->4)GlcNAc on a homogeneously soluble PEG polymer by a multi-enzyme system” (Bioorg Med Chem Lett, 2001).

Key:
[1] = (§1) Kinetic data for inhibition of Beta-1,4-GalT by polymer-supported Nacetylglucosamine.; conditions: human
Homo sapiens = organism: Homo sapiens; experiment: (§2) Kinetic data for inhibition of Beta-1,4-GalT by free N-acetyl-glucosamine
[2] = as §1; set-up: species or system Homo sapiens
[3] = as §2; conditions: human
[4] = as §2; set-up: species or system Homo sapiens

Km [1]: 10.5 mM
Vmax [1]: 4.73 U mg-1
Km (Homo sapiens): 34.6 mM
Ki [2]: 0.54 mM
Vmax [3]: 2.62 U mg-1
Ki [4]: 14.3 mM
SMILES: CC(=O)N[C@@H]1[C@@H](O)[C@H](O)[C@@H](CO)O[C@H]1O [N-ACETYLGLUCOSAMINE]
